“Also recorded” adds a separate entry of the source. Read-outs that look alike come from different tables or passages of the source.
Columns and labels:
Format in all cases: biochemical
[1] = tested on: Mutanase A (RM1 enzyme) from Bacillus sp. RM1 (FERM P-14836)
Experimental: (§1) To 100 μl of a 0.1M acetic acid buffer containing 3% mutan (pH 5) was added 100 μl of the mutanase solution. The mixture was incubated at 35° C. for 10 minutes with shaking at 100 strokes/min. Reaction was terminated by adding 0.4 ml of a 4,6-dinitrosalicylic acid (DNS) solution. The reaction mixture was centrifuged and 0.5 ml of the supernatant was transferred into a test tube. The tube was capped with a glass ball and kept in boiling water for 10 minutes. The tube was cooled with water for 5 minutes. Then 4 ml of distilled water was added and optical absorbance measured at 530 nm. A titer was determined using glucose as standard. The amount of enzyme which releases 1 μg of reducing sugar per minute is defined as one unit. It is noted that the enzymatic activity referred to below in conjunction with any of physicochemical properties is measured by this method.
(§2) Mutanase according to the invention was added to a 50 mM acetic acid buffer (pH 5) in an amount of 50 units/ml. Various inhibitors were individually added thereto in a final concentration of 1 mM. The solution was incubated at 35° C. for 30 minutes. The relative activity is expressed based on the assumption that the enzymatic activity of an inhibitor-free sample is 100%.

[2] = tested on: Mutanase C (M7 enzyme) from Bacillus sp. M7 (FERM P-14835)
Experimental: as §1, §2

[3] = tested on: Mutanase B (RM4 enzyme) from Bacillus sp. RM4 (FERM P-14837)
Experimental: as §1, §2

[4] = inhibitor final concentration 1 mM, 50 mM acetic acid buffer pH 5, 35° C., 30 minutes, inhibitor-free sample = 100%
[5] = mutan substrate, 1 mM inhibitor

| Compound | Relative activity (%) Mutanase A ([1]; pH 5) | Relative activity (%) Mutanase C ([2]; pH 5) | Relative activity (%) Mutanase B ([3]; pH 5) | Relative activity (%) Mutanase A [1, 4] | Relative activity (%) Mutanase C [2, 4] | Relative activity (%) Mutanase B [3, 4] | effect of inhibitors on mutanase A (in words) [1, 5] | effect of inhibitors on mutanase C (in words) [2, 5] | effect of inhibitors on mutanase B (in words) [3, 5] |
| --- | --- | --- | --- | --- | --- | --- | --- | --- | --- |
| O=C(O)CN(CCN(CC(=O)O)CC(=O)O)CC(=O)O [2Na-EDTA] | 93% | 79% | 99% | – | – | – | – | – | – |
| O=C(O)CI [Iodoacetic acid] | 100% | 87% | 99% | – | – | – | – | – | – |
| CCN1C(=O)C=CC1=O [N-ethylmaleimide] | – | – | – | 100% | 94% | 98% | – | – | – |
| O=C(O)c1cc[c]([Hg][Cl])cc1 [PCMB, p-chloromercurybenzoic acid] | – | – | – | 6% | 11% | 14% | shows inhibitory effect; also recorded: strongly inhibits | shows inhibitory effect; also recorded: strongly inhibits | shows inhibitory effect; also recorded: strongly inhibits |

— US5741487A, “Mutanase-containing oral compositions” (priority 1996, dated 1998)
